According to US20260216141A1, “NECROSIS INHIBITOR” (LINKGEVITY LIMITED, priority 2023, published 2026):
Entries after “also recorded” stand apart in the source; their conditions may differ.

Tests used:
[1] = tested on: E. coli; test: E. coli oxidative stress, colony forming units; type: cell-based; conditions: EGTA 2500 μM during stress; 50 min 1 mM H2O2
Method: 2 loops of E. coli stationary-phase bacterial cells collected post seeding (80 μL from a culture grown for 12 hrs) on agar plates containing bactopeptone and allowing to grow for 24 hrs was collected in buffer. Bacterial cells were then stressed for 50 min using 1 mM hydrogen peroxide. Treatment is EGTA 2500 μM during stress. Cells were then washed in buffer. Following stress, bacteria was washed in buffer and then diluted 1:500 in MilliQ water and seeded onto agar plates containing bactopeptone and left at 37° C. overnight. This was followed by counting colony forming units (CFU) counted. Three repeats were performed.
Bacteria, E. coli, and yeast, S. pombi, were exposed to toxin hydrogen peroxide stress (stress is for 50 min 1 mM H2O2) with or without high doses (2500 μM; c.f. FIG. 2) of the chelating agent EGTA (inhibitor of the predicted weak spot of loss of calcium ion homeostasis in the cytosol) delivered during the stress.
Following stress, bacteria cells were then placed on agar plates and allowed to grow at 37° C. overnight and colony forming units (CFU) were then counted.

[2] = tested on: C. elegans; test: C. elegans movement analysis post stress; type: in vivo, Caenorhabditis elegans; conditions: EGTA 2500 μM in liposomes 3 hrs prior stress; cold, heat, oxidative and toxin stress
Text: Movement was scored according to an adapted methodology (from Herndon et al., 2002). Briefly, animals were marked as either: normal movement; or defective movement. Defective movement was defined as worms that are stationary unless touched with a pick, in which case they may only move a few […] forward before stopping again or they may not move at all. 100 animals were used per trial and the percentage of worms with defective movement was scored.
According to the protocol in Shibamura et al., 2009, drug was dissolved in MilliQ water and encapsulated in liposomes. Drug used was EGTA, at a final concentration of 2500 μM. Briefly, L-a-phosphatidylcholine (LαPC) was used to prepare liposomes by first dissolving LαPC in distilled water at the concentration of 96 mg/ml. A ×2 concentration of drug solution was mixed with LαPC to a 1:1 ratio and heated to 65° C. Drug-LαPC solution was then converted into liposomes using a mini-Avanti extruder a 100 nm pore size polycarbonate membrane. MilliQ water encapsulated in liposomes was used a as the empty vector control. Following preparation, 25 μl of the liposome drug solution was spread onto a 25 μl spot OP50 lawn on NGM plates and worms were then picked onto the plates.
The percentage of animals with this defective movement were scored post stress.

[3] = tested on: mouse organs (heart, brain, spleen organotypic slices); test: Mouse organotypic slices hypoxia stress, PI/DAPI staining; type: cell-based; conditions: 2500 μM EGTA during stress, hypoxia 2.5 hrs in N2 gas bubbled buffer
Text: For organotypic cultures, sagittal hippocampal brainslices were taken from wild type mice. Following decapitation, all organs were quickly removed, placed in ice-cold buffer (artificial cerebrospinal fluid (ACSF) [in mmol/L]: NaCl 125, KCl 2.4, NaHCO326, NaH2PO4 1.25, glucose 25, CaCl2 2 [0.5 mmol/L for dissection], MgCl2 1 [5 mmol/L for dissection]; bubbled with carbogen) for brain, and for all other organs Ringers buffer. For brain, to reduce the rate of cell death most dissections were carried out with high-magnesium (5 mmol/L)/low-calcium (0.5 mmol/L) ACSF. The brain was hemisected and a section was cut away by hand that was approximately 100° from the midline surface. The hemispheres were then mounted with superglue on to a slicing stage and 300 μm hippocampal slices were cut with a vibroslicer and transferred to an incubating chamber with circulating ACSF (bubbled with carbogen). All other organs were treated similarly but Ringer's buffer was used instead of ACSF. For the heart and spleen, cross sectional slices going fully across the organ were taken. The slices were incubated at 35° C. for approximately 1 hrs before the incubator was switched off and the bath was allowed to cool to room temperature. […]

[4] = tested on: HEK293 suspension culture; test: HEK293 suspension culture oxidative stress, PI/DAPI staining; type: cell-based, human; conditions: 2500 μM EGTA 2 hrs prior and during stress, 20 sec 1M H2O2
Method: HEK293 cells were detached using trypsin, washed and placed in cell culture medium. Cells were pre-treated for 2 hrs before and during stress with or without (control) EGTA 2500 μM. Cells were stressed by placing them in a 1M hydrogen peroxide solution (in cell culture medium) for 20 sec. Cells were then washed in cell culture medium and stained with PI as well as DAPI to visualise all cell nuclei (including intact cell nuclei), and placed on a microscope slide under a coverslip and imaged.
For HEK293 suspension culture, cells were treated with a high dosage of EGTA 2 hrs prior to stress as well as during the stress. Stress was exposure to 1M hydrogen peroxide alongside untreated controls. Cells were then stained with DAPI and PI and Normarski and epifluoresence imaging was performed.

[5] = tested on: Hepg2s spheroids; test: Hepg2s spheroids made by hanging drop technique, necrotic core formation; type: cell-based, human
Method: Multi-cellular spheroids were prepared using a hanging drop method. A stock solution of methylcellulose (MC) was prepared by dissolving 1.2 g of MC powder (4000 cP, Sigma-Aldrich) in 100 ml of DMEM. The solution was magnetically stirred overnight at 4° C. and subsequently centrifuged at 4,000 g for 3 hrs. HepG2s cells were re-suspended in cell medium containing 20% MC stock solution at a concentration of 20,000 cells per 50 μL spheroid. 50 μL drops were subsequently pipetted onto a non-adherent petri dish (Greiner) and, replacing the lid, the dish was turned upside-down and incubated overnight at 37° C. Multi-cellular spheroids were harvested individually with a wide bore pipette or collectively by adding 5 mL cell medium to the dish, collecting and centrifuging the suspension at 300 g for 5 min and resuspending the spheroids in cell medium. Spheroids were then cultured for 5 days in 48 well plates containing 2.5% agarose gel and 400 μl cell medium. EGTA was added at 0 and 2500 μM to both the spheroid pre-cursor solution and the cell culture medium. At day 3 and day 5 the spheroids were imaged and assessed.
Next, 3D cell culture was employed using Hepg2 cells and a standard hanging drop protocol of spheroid production. […] Necrotic cores disrupt physiology, and a challenge is vasculature formation faster than necrotic core formation. […]

SMILES: O=C(O)CN(CCOCCOCCN(CC(=O)O)CC(=O)O)CC(=O)O [EGTA, ethylene glycol-bis(β-aminoethyl ether)-N,N,N′,N′-tetraacetic acid]
- E. coli death / colony forming units (CFU) following oxidative stress [1]: death is prevented
- movement defects post stress [2]: reduced movement defects
- % of necrotic cells (PI stain) relative to all cells (DAPI stain) [3]: necrosis cell death is prevented; also recorded: marked improvement in all 3 tissue types
- % of necrotic cells (PI stain) relative to all cells (DAPI stain) [4]: necrosis cell death is prevented; also recorded: significantly reduced
- necrotic core formation ([5]; hanging drop Hepg2s spheroids, 2500 μM EGTA or 5000 μM EGTA, 5 days): no necrotic core even after 5 days
- necrotic core formation ([5]; hanging drop Hepg2 spheroids, 20,000 cells, EGTA at 250 and 500 mM, day 5): no necrotic cores being visible
